These results are taken from patent publication US20260103497A1, “DUAL GLP-1 AND GIP RECEPTOR AGONIST PHARMACEUTICAL COMPOSITION AND USE THEREOF” (BRIGHTGENE PTE. LTD., priority 2022, published 2026).

A value given as a limit tells only on which side of the number the result lay.

A short description of series [1]: Solubility of the compound of formula I in compositions with sodium chloride or propylene glycol. Type of series: physicochemical. To be noted: disodium hydrogen phosphate dodecahydrate, pH 7, water for injection. The source says:
It is worth mentioning that in polypeptide-based preparations, sodium chloride is believed to play a role in maintaining electrolyte balance and stabilizing polypeptide structures, and it is present as a stabilizer in a variety of existing polypeptide-based preparations.

Series [2] concerns the target GLP-1 receptor (Homo sapiens, UniProt P43220). The experiment in a line: Preclinical agonistic effect on GLP-1 receptor. To be noted: greater activity compared to Tirzepatide; preclinical studies.
Series [3] concerns the target T1, GIP receptor (Homo sapiens, UniProt P48546).
T1 sequence (P48546 22-466): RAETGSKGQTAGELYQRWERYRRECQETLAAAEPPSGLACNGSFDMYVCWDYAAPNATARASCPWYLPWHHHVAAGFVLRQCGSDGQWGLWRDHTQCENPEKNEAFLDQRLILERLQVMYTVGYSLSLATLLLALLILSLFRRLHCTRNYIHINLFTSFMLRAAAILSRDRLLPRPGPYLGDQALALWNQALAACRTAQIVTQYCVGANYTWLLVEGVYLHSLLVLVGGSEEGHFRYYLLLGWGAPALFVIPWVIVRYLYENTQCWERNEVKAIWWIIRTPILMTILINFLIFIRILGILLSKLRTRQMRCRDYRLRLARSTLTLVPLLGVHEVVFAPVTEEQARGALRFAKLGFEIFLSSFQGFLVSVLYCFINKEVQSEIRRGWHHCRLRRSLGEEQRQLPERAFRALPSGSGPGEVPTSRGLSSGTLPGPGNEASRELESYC
The experiment in a line: Preclinical agonistic effect on GIP receptor. As to conditions: greater activity compared to Tirzepatide; preclinical studies.

Series [4] concerns plasma proteins. Nature of the series: Plasma protein binding. Type of series: in vitro ADME. To be noted: plasma proteins from all species.
A short description of series [5]: Pre-clinical pharmacokinetics in rats. To be noted: rat, in vivo.
A short description of series [6]: Pre-clinical pharmacokinetics in cynomolgus monkeys. As to conditions: cynomolgus monkey, in vivo.

Chain of GLP-1 receptor (P43220 24-463, species assumed): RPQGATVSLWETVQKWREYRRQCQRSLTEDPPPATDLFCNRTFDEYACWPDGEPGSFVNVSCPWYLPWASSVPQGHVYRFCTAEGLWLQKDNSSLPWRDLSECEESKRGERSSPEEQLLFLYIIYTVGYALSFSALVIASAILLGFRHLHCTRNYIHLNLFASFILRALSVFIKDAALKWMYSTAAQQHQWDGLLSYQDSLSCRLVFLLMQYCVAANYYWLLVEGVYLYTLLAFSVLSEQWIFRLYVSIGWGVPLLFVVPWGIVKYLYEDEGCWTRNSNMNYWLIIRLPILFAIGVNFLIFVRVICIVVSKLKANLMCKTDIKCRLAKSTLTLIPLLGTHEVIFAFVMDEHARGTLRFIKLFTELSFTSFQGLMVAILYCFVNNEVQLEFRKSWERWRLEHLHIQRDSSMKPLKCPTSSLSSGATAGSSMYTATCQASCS

Turning to `NC(=O)C(CCCCNC(=O)COCCOCCOCCNC(=O)COCCOCCOCCNC(=O)CCC(NC(=O)CC(=O)O)C(=O)O)NN[C@H](C=O)CO` (stereo partly shown) [Compound of formula I], the solubility in series [1] (pH 7, propylene glycol as stabilizer (14 mg in 1 mL)) is ≥ 30000 µg/mL; in series [1] (sodium chloride instead of propylene glycol (16.4 mg in 2 mL)), 150 µg/mL. Also, the “agonistic activity on GLP-1 receptor compared to Tirzepatide” value in series [2] was 2- to 3 fold. For the same compound, the “agonistic activity on GIP receptor compared to Tirzepatide” value in series [3] is 2- to 3 fold. Moreover, the “binding rates to plasma proteins” value in series [4] is recorded as “over 99.4%”. In addition, the figures for the half-life in series [5] and in series [6] were ~14 h and ~40 h, respectively.
